Several values for one entry are separate records, joined by “and”; a condition that tells them apart may be missing. Identical values can stand only once. Like-named read-outs stand apart in the source and are kept apart here.
Legend:
[1] = biological target: Flt1 (h)/VEGFR1 (Homo sapiens, UniProt P17948); test: Kinase profile assay and IC50 test (Eurofins); type: biochemical; details: double testing
Protocol: (§1) The in vitro kinase enzymatic inhibition assays were carried out by the Kinase Profiling Services provided by Eurofins (UK). The detailed protocol descriptions can be provided by the website (https://www.eurofinsdiscoveryservices.com).

[2] = biological target: Abl (h) (Homo sapiens, UniProt P00519); test: Kinase profile assay and IC50 test (Eurofins); type: biochemical; details: double testing
Protocol: as §1

[3] = tested on: phosphorylation of Smad2/3; test: Western blot of TGF‐β1‐induced Smad signalling in fibroblasts; type: cell-based; details: TGF‐β1, 24 hours
Protocol: Samples of cells and mouse lung tissues were lysed in RIPA buffer with a protease and phosphatase inhibitors (Selleckchem). The protein concentrations in the cell lysate were measured by the Lowry method. Approximately 50 μg of total protein was separated by SDS‐PAGE and then transferred to polyvinylidene fluoride (PVDF) membranes (Amersham Bioscience). After the membranes incubation with the specific primary and secondary antibodies, the reactive bands were detected with enhanced chemiluminescent substrate to horseradish peroxidase.

[4] = Pharmacokinetics study after IV and PO administration to SD rats; type: in vivo; details: for concentration at 2 h / concentration at 4 h / concentration at 6 h / concentration at 8 h / AUC / MRT: SD, rat, plasma
Protocol: The appropriate amount of YTH‐60 was accurately weighed, added to the final volume of 5% DMSO, 40% PEG400 and 55% normal saline, and vortexed or ultrasonicated to fully mix. Then, 0.4 and 2 mg·mL^−1 of clarified dosing solution was used for intravenous administration and oral gavage administration. SD rats were transferred from the Experimental Animal Library (999 M‐017), Shanghai Xipuer‐Beikai Experimental Animal Co. Ltd. After oral, intravenous or intragastric administration, blood was collected by jugular vein or other suitable methods. Approximately 0.20 mL of each sample was collected, in the presence of heparin sodium as an anticoagulant. After the blood samples were collected, they were placed on ice and centrifuged to separate plasma within 2 hours (centrifugation conditions: centrifugal force 6800 g, 6 minutes, 2‐8°C). The collected plasma samples were stored at −80°C before analysis by LC‐MS/MS‐18. After analysis, the remaining plasma samples were stored at −80°C for a period of 1 month.

Abl (h), sequence (P00519 whole entry): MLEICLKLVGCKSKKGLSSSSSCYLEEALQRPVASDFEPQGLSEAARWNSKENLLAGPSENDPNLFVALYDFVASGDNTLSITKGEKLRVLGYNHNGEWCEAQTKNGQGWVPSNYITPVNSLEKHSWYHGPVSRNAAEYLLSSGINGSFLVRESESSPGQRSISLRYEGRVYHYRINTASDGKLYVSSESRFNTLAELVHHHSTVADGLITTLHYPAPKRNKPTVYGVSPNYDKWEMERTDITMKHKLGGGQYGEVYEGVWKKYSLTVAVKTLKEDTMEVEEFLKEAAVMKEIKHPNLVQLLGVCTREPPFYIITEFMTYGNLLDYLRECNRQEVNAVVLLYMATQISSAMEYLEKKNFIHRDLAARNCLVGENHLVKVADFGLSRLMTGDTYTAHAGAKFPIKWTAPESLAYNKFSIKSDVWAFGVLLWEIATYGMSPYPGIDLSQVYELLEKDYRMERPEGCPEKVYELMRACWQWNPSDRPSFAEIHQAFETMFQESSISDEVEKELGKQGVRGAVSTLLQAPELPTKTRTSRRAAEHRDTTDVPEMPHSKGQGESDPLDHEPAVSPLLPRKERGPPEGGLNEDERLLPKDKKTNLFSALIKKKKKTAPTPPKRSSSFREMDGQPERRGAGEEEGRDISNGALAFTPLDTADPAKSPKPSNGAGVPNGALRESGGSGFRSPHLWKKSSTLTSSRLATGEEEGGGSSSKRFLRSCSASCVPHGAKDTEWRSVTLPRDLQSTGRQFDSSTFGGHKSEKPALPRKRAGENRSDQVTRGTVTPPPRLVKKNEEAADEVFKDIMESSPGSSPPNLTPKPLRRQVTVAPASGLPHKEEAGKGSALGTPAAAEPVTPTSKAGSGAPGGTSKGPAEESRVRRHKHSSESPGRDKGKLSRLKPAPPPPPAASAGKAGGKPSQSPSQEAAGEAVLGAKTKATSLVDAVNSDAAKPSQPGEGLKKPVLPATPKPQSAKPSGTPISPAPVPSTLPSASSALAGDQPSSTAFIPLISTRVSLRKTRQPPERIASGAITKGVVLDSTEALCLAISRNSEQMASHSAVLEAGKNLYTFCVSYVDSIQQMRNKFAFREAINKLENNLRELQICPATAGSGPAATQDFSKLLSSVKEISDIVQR
Flt1 (h)/VEGFR1, sequence (P17948 27-1338): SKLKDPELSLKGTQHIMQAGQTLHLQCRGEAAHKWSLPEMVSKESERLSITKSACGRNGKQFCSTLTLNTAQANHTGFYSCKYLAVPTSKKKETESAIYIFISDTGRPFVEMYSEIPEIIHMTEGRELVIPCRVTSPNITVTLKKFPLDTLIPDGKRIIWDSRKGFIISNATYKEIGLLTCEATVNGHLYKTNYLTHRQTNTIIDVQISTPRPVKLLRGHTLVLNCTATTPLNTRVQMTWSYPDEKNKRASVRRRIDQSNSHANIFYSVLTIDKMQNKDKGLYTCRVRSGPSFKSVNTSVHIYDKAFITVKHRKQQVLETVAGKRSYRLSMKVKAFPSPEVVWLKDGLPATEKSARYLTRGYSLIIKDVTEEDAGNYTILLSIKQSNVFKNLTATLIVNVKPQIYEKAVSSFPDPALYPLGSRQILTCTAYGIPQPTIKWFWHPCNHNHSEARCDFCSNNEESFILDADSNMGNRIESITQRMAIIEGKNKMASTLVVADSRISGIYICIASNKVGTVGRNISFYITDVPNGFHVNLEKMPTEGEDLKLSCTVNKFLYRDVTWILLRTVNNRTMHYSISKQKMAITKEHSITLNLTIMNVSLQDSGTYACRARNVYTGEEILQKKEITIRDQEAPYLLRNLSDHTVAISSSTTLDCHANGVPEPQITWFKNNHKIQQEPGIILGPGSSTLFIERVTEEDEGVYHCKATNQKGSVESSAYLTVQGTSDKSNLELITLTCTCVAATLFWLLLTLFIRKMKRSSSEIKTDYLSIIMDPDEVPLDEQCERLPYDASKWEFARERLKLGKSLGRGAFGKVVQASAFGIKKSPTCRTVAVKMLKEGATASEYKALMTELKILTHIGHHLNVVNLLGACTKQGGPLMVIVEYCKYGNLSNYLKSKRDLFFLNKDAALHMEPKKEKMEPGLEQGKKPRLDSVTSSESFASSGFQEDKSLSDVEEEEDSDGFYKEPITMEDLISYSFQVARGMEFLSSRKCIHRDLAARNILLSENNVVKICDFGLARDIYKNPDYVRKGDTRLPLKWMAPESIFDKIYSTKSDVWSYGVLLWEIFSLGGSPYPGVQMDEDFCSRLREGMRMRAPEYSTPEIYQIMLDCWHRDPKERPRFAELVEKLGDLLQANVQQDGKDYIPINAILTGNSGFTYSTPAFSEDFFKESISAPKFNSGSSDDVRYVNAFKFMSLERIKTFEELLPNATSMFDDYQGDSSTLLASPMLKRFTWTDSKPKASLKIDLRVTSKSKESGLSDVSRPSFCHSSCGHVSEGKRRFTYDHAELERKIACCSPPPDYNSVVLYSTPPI

Structure (SMILES): COc1cc(OC)c(Cl)c(-c2ccc3c(/C=C/c4ccc(N(C)C(=O)CN5CCN(C)CC5)cc4)n[nH]c3c2)c1Cl [YTH‐60, (E)‐N‐(4‐(2‐(6‐(2,6‐dichloro‐3,5‐dimethoxyphenyl)‐1H‐indazol‐3‐yl)vinyl)phenyl)‐N‐methyl‐2‐(4‐methylpiperazin‐1‐yl)acetamide]
- IC50 [1]: 123 nM
- IC50 [2]: 27 nM
- TGF‐β1‐induced phosphorylation of Smad2/3 (in words) [3]: significantly reduced this phosphorylation
- Individual plasma concentration ([4]; IV 2 mg/kg, 0.083 h, individual animals 101, 102, 103, 2 mg/kg): 423.84 ng/mL and 362.43 ng/mL
- Individual plasma concentration ([4]; IV 2 mg/kg, 0.25 h, individual animals 101, 102, 103, 2 mg/kg): 168.72 ng/mL and 204.54 ng/mL
- Individual plasma concentration ([4]; IV 2 mg/kg, 0.5 h, individual animals 101, 102, 103, 2 mg/kg): 128.91 ng/mL and 163.29 ng/mL
- Individual plasma concentration ([4]; IV 2 mg/kg, 1 h, individual animals 101, 102, 103, 2 mg/kg): 107.71 ng/mL and 131.39 ng/mL
- Individual plasma concentration ([4]; IV 2 mg/kg, 2 h, individual animals 101, 102, 103, 2 mg/kg): 69.27 ng/mL and 80.59 ng/mL
- Individual plasma concentration ([4]; IV 2 mg/kg, 4 h, individual animals 101, 102, 103, 2 mg/kg): 42.78 ng/mL and 48.71 ng/mL
- Individual plasma concentration ([4]; IV 2 mg/kg, 6 h, individual animals 101, 102, 103, 2 mg/kg): 34.45 ng/mL and 41.43 ng/mL
- Individual plasma concentration ([4]; IV 2 mg/kg, 8 h, individual animals 101, 102, 103, 2 mg/kg): 22.38 ng/mL and 32.19 ng/mL
- Individual plasma concentration ([4]; IV 2 mg/kg, 24 h, individual animals 101, 102, 103, 2 mg/kg): 2.68 ng/mL and 3.51 ng/mL
- Individual plasma concentration ([4]; PO 20 mg/kg, 0.25 h, individual animals 201, 202, 203, 20 mg/kg): 38.10 ng/mL and 22.94 ng/mL
- Individual plasma concentration ([4]; PO 20 mg/kg, 0.5 h, individual animals 201, 202, 203, 20 mg/kg): 25.31 ng/mL and 35.39 ng/mL
- Individual plasma concentration ([4]; PO 20 mg/kg, 1 h, individual animals 201, 202, 203, 20 mg/kg): 34.05 ng/mL and 26.26 ng/mL
- Individual plasma concentration ([4]; PO 20 mg/kg, 2 h, individual animals 201, 202, 203, 20 mg/kg): 87.47 ng/mL and 35.35 ng/mL and 57.08 ng/mL
- Individual plasma concentration ([4]; PO 20 mg/kg, 4 h, individual animals 201, 202, 203, 20 mg/kg): 83.13 ng/mL and 87.88 ng/mL
- Individual plasma concentration ([4]; PO 20 mg/kg, 6 h, individual animals 201, 202, 203, 20 mg/kg): 85.16 ng/mL and 114.92 ng/mL
- Individual plasma concentration ([4]; PO 20 mg/kg, 8 h, individual animals 201, 202, 203, 20 mg/kg): 79.77 ng/mL and 97.21 ng/mL
- Individual plasma concentration ([4]; PO 20 mg/kg, 24 h, individual animals 201, 202, 203, 20 mg/kg): 14.36 ng/mL and 18.49 ng/mL
- concentration at 2 h ([4]; iv, 2 mg/kg, IV 2 mg/kg, 2 h, individual animals 101, 102, 103, read-out: Individual plasma concentration): 68.3 ng/mL
- concentration at 2 h ([4]; iv, 2 mg/kg, IV 2 mg/kg, 2 h, read-out: Mean plasma concentration): 72.7 ng/mL
- concentration at 4 h ([4]; iv, 2 mg/kg, IV 2 mg/kg, 4 h, individual animals 101, 102, 103, read-out: Individual plasma concentration): 41.1 ng/mL
- concentration at 4 h ([4]; iv, 2 mg/kg, IV 2 mg/kg, 4 h, read-out: Mean plasma concentration): 44.2 ng/mL
- concentration at 6 h ([4]; iv, 2 mg/kg, IV 2 mg/kg, 6 h, individual animals 101, 102, 103, read-out: Individual plasma concentration): 36.8 ng/mL
- concentration at 6 h ([4]; iv, 2 mg/kg, IV 2 mg/kg, 6 h, read-out: Mean plasma concentration): 37.6 ng/mL
- concentration at 8 h ([4]; iv, 2 mg/kg, IV 2 mg/kg, 8 h, individual animals 101, 102, 103, read-out: Individual plasma concentration): 20.4 ng/mL
- AUC ([4]; iv, 2 mg/kg, SD rats, i.v. 2 mg·kg^−1, read-out: AUC0‐t): 773 ± 99.4 ng·h/mL
- AUC ([4]; iv, 2 mg/kg, SD rats, i.v. 2 mg·kg^−1, read-out: AUC0‐∞): 793 ± 104 ng·h/mL
- MRT ([4]; iv, 2 mg/kg, SD rats, i.v. 2 mg·kg^−1, read-out: MRT0‐t): 4.5 ± 0.28 h
- MRT ([4]; iv, 2 mg/kg, SD rats, i.v. 2 mg·kg^−1, read-out: MRT0‐∞): 5.16 ± 0.36 h
- AUC ([4]; iv, 2 mg·kg^−1, SD rats, after an IV dose, read-out: mean AUC(0‐t)): 773 ng·h/mL
- concentration at 2 h ([4]; po, 20 mg/kg, PO 20 mg/kg, 2 h, read-out: Mean plasma concentration): 60 ng/mL
- concentration at 4 h ([4]; po, 20 mg/kg, PO 20 mg/kg, 4 h, individual animals 201, 202, 203, read-out: Individual plasma concentration): 84.7 ng/mL
- concentration at 4 h ([4]; po, 20 mg/kg, PO 20 mg/kg, 4 h, read-out: Mean plasma concentration): 85.2 ng/mL
- concentration at 6 h ([4]; po, 20 mg/kg, PO 20 mg/kg, 6 h, individual animals 201, 202, 203, read-out: Individual plasma concentration): 82.5 ng/mL
- concentration at 6 h ([4]; po, 20 mg/kg, PO 20 mg/kg, 6 h, read-out: Mean plasma concentration): 94.2 ng/mL
- concentration at 8 h ([4]; po, 20 mg/kg, PO 20 mg/kg, 8 h, individual animals 201, 202, 203, read-out: Individual plasma concentration): 67.4 ng/mL
- concentration at 8 h ([4]; po, 20 mg/kg, PO 20 mg/kg, 8 h, read-out: Mean plasma concentration): 81.5 ng/mL
